From the NIST ThermoML archive (doi:10.1016/j.fluid.2014.11.020)
± gives the expanded uncertainty stated by the source.

Experiment: activity coefficient (dimensionless); of the first substance listed, at infinite dilution; xn = mol fraction of the nth substance listed
Settings: Liquid, Chromatography, x1 = 0

SMILES | activity coefficient (323.15 K) | activity coefficient (333.15 K) | activity coefficient (343.15 K)
CC1CCCCC1 [methylcyclohexane] + CCCCCCCCn1cc[n+](COCCCOC[n+]2ccn(CCCCCCCC)c2C)c1C.O=S(=O)([N-]S(=O)(=O)C(F)(F)F)C(F)(F)F.O=S(=O)([N-]S(=O)(=O)C(F)(F)F)C(F)(F)F | 2.94 ± 0.2 | 2.71 ± 0.18 | 2.73 ± 0.19
C1CCCCCC1 [cycloheptane] + CCCOC[n+]1ccc(N(C)C)cc1.O=S(=O)([N-]S(=O)(=O)C(F)(F)F)C(F)(F)F | 18.6 ± 1.3 | 24.6 ± 1.7 | 31.7 ± 2.2
CC(C)CO [2-methyl-1-propanol] + CCCOC[n+]1ccn(Cc2ccccc2)c1.N#C[N-]C#N | 0.9 ± 0.06 | 0.86 ± 0.06 | –
c1ccsc1 [thiophene] + CCCCCCCCn1cc[n+](COCCCOC[n+]2ccn(CCCCCCCC)c2C)c1C.O=S(=O)([N-]S(=O)(=O)C(F)(F)F)C(F)(F)F.O=S(=O)([N-]S(=O)(=O)C(F)(F)F)C(F)(F)F | 0.38 ± 0.03 | 0.37 ± 0.03 | 0.38 ± 0.03
C[N+](=O)[O-] [nitromethane] + CCCOC[n+]1ccn(Cc2ccccc2)c1.N#C[N-]C#N | 1.06 ± 0.07 | 0.71 ± 0.05 | 0.72 ± 0.05
C[N+](=O)[O-] [nitromethane] + CCCOC[n+]1ccn(Cc2ccccc2)c1.F[B-](F)(F)F | 0.58 ± 0.04 | 0.57 ± 0.04 | 0.58 ± 0.04
ClC(Cl)Cl [trichloromethane] + CCCOC[n+]1ccn(C)c1.F[B-](F)(F)F | 1.74 ± 0.12 | 1.8 ± 0.12 | 1.87 ± 0.13
CCCCCCCC [octane] + CCCCCCCCn1cc[n+](COCCCOC[n+]2ccn(CCCCCCCC)c2C)c1C.N#C[N-]C#N.N#C[N-]C#N | 12.1 ± 0.82 | 11.4 ± 0.78 | 11.3 ± 0.77
CO [methanol] + CN(C)c1cc[n+](COCCCOC[n+]2ccc(N(C)C)cc2)cc1.O=S(=O)([N-]S(=O)(=O)C(F)(F)F)C(F)(F)F.O=S(=O)([N-]S(=O)(=O)C(F)(F)F)C(F)(F)F | 0.91 ± 0.06 | 0.86 ± 0.06 | 0.79 ± 0.05
C1CCCCC1 [cyclohexane] + Cn1cc[n+](COCCCOC[n+]2ccn(C)c2)c1.O=S(=O)([N-]S(=O)(=O)C(F)(F)F)C(F)(F)F.O=S(=O)([N-]S(=O)(=O)C(F)(F)F)C(F)(F)F | 17.6 ± 1.2 | 12.4 ± 0.85 | –
CCCCCCCCCCCC [dodecane] + CCCOC[n+]1ccn(C)c1.N#C[N-]C#N | 802 ± 55 | 716 ± 49 | 639 ± 44
CCCCO [butan-1-ol] + CN(C)c1cc[n+](COCCCOC[n+]2ccc(N(C)C)cc2)cc1.O=S(=O)([N-]S(=O)(=O)C(F)(F)F)C(F)(F)F.O=S(=O)([N-]S(=O)(=O)C(F)(F)F)C(F)(F)F | 1.95 ± 0.13 | 1.64 ± 0.11 | 1.58 ± 0.1
